In ChEMBL document CHEMBL1158010, “New cytotoxic oxygenated fucosterols from the brown alga Turbinaria conoides” (1999) one finds EC50 data, which are given here for five molecules.

One experiment concerns A549. Description: Cytotoxicity against human A549 cells after 6 days by MTT assay. The following applies: A549, 144 h, read-out: ED50 (the source's name). (Formazan colour is commonly taken as a measure of viable cells.)
Another experiment deals with KB. Nature of the experiment: Cytotoxicity against human KB cells after 3 days by MTT assay. The conditions noted are these: 72 h, read-out: ED50 (the source's name).
The next experiment relates to HT-29. Nature of the experiment: Cytotoxicity against human HT-29 cells after 6 days by MTT assay. The conditions noted are these: HT-29, 144 h, read-out: ED50 (the source's name).
The subject of the next experiment is P388. Nature of the experiment: Cytotoxicity against mouse P388 cells after 3 days. The following applies: P388, 72 h, read-out: ED50 (the source's name).

≈ marks a conversion by molar mass, not a printed value.

For the molecule `C/C=C(\CC[C@@H](C)[C@H]1CC[C@H]2[C@@H]3C[C@@H](O)C4=CC(=O)CC[C@]4(C)[C@H]3CC[C@]12C)C(C)C`, the EC50 with A549 amounted to 2.3 µg/mL (≈ 5.39 µM); with KB, 4.6 µg/mL (≈ 10.8 µM); in the experiment on HT-29, 1.2 µg/mL (≈ 2.81 µM); in the experiment on P388 it was 0.9 µg/mL (≈ 2.11 µM).
`C=CC(CC[C@@H](C)[C@H]1CC[C@H]2[C@@H]3C[C@@H](O)C4=CC(=O)CC[C@]4(C)[C@H]3CC[C@]12C)(OO)C(C)C` (stereo not given in full): the EC50 with A549 was found to be 1.8 µg/mL (≈ 3.92 µM); with KB it was 1.8 µg/mL (≈ 3.92 µM); with HT-29, 1.7 µg/mL (≈ 3.71 µM); in the experiment on P388, 0.4 µg/mL (≈ 0.872 µM).
As to `C=CC(CC[C@@H](C)[C@H]1CC[C@H]2[C@@H]3CC(=O)C4=CC(=O)CC[C@]4(C)[C@H]3CC[C@]12C)(OO)C(C)C` (stereo not given in full), the EC50 amounted to 2.5 µg/mL (≈ 5.47 µM) with A549, 4 µg/mL (≈ 8.76 µM) in the experiment on KB, 1.4 µg/mL (≈ 3.07 µM) in the experiment on HT-29 and 0.8 µg/mL (≈ 1.75 µM) in the experiment on P388.
The matching figures for `C/C=C(\CC[C@@H](C)[C@H]1CC[C@H]2[C@@H]3CCC4=CC(=O)CC[C@]4(C)[C@H]3CC[C@]12C)C(C)C`: more than 50 µg/mL, more than 50 µg/mL, more than 50 µg/mL and more than 50 µg/mL.
The matching figures for `C/C=C(\CC[C@@H](C)[C@H]1CC[C@H]2[C@@H]3CC(=O)C4=CC(=O)CC[C@]4(C)[C@H]3CC[C@]12C)C(C)C`: 3.1 µg/mL (≈ 7.3 µM), 5.9 µg/mL (≈ 13.9 µM), 0.4 µg/mL (≈ 0.942 µM) and 0.6 µg/mL (≈ 1.41 µM).
